Values after ≈ are worked out from the molar mass of the structure shown.
Tests used:
[1] = test system: S. aureus USA300 wild type; assay: microbe, parasite or virus in culture; format: cell-based
Source text: Wild-type clinical S. aureus strains were obtained from the Network on Antibiotic Resistance in Staphylococcus aureus (NARSA/BEI) program. MRSA strain USA300 refers throughout this paper to strain NRS384 from NARSA/BEI. A global panel of 102 clinical S. aureus isolates was selected from the collection of International Health Management Associates, Inc. (IHMA; Schaumburg, IL), based on diversity of geographic locations, antibiotic resistance profiles, and sites of infection. Bacteria were cultured on cation-adjusted Mueller-Hinton agar (MHA) plates or in cation-adjusted Mueller-Hinton broth (MHB). Bacterial strains used in this study are listed in Table S5 in the supplemental material.
(§1) MICs were determined according to the standard protocol from the Clinical and Laboratory Standards Institute ([23]). Briefly, S. aureus bacteria were harvested from regular MHA plates that had been cultured for ~20 h at 37°C. Serial dilutions of compound 103 were incubated with bacteria at approximately 10^6 CFU (CFU)/ml in MHB in round-bottom 96 well plates (Corning, Corning, NY) for 22 h at 37°C. MICs were determined by the lowest concentration of compound 103 showing absence of growth by visual inspection.

[2] = test system: S. aureus USA300 cro/cI (M1V) (GNE0117); assay: MIC, cro/cI(M1V) mutant; format: cell-based; settings: for effect of cro/cI mutation on sensitivity to antibiotics: result in words, versus USA300 WT
Procedure: as §1

[3] = test system: USA300 WT strain (strain GNE0023); assay: MIC, parental USA300 WT strain GNE0023; format: cell-based, S. aureus
Procedure: as §1
(§2) To generate mutations in SAUSA300_0351, _0352, and _0353 genes by homologous recombination, we transformed USA300 Δmcr using targeting constructs created in the vector pIMAY ([24]). To generate mutations in SAUSA300_0351, _0352, and _0353 genes in a cro/cI mutant background, we selected colonies from USA300 Δmcr cultured on plates containing fourfold the MIC of compound 103. Sequencing of PCR products of the cro/cI gene from resistant colonies yielded a clone with a Q16stop codon mutation in cro/cI (strain GNE0173). We further mutated SAUSA300_0351, _0352, and _0353 in this USA300 Δmcr cro/cI (Q16stop) clone to study the contributions of these three genes to cro/cI-mediated resistance.

[4] = test system: S. aureus USA300 SAUSA300_0352(K44A) mutant (strain GNE0174); assay: MIC, K44A mutant GNE0174; format: cell-based
Procedure: as §1, §2

[5] = S. aureus USA300 cro/cI (M1V) (GNE0117), Table S2

Row | Compound | MIC ([1]; Staphylococcus aureus, USA300) [µg/mL] | effect of cro/cI mutation on sensitivity to antibiotics [2] | further results
1 | CCC[C@@H]1C[C@@H](C(=O)N[C@@H]([C@H]2O[C@H](SC)[C@H](O)[C@@H](O)[C@H]2O)[C@H](C)Cl)N(C)C1 [Clindamycin] | 0.25 (≈ 0.588 µM) | did not reduce sensitivity | 
2 | CCCCCCCCCC(=O)N[C@@H](Cc1c[nH]c2ccccc12)C(=O)N[C@H](CC(N)=O)C(=O)N[C@@H](CC(=O)O)C(=O)N[C@@H]1C(=O)NCC(=O)N[C@@H](CCCN)C(=O)N[C@@H](CC(=O)O)C(=O)N[C@H](C)C(=O)N[C@@H](CC(=O)O)C(=O)NCC(=O)N[C@H](CO)C(=O)N[C@@H]([C@H](C)CC(=O)O)C(=O)N[C@@H](CC(=O)c2ccccc2N)C(=O)O[C@@H]1C [Daptomycin] |  | did not reduce sensitivity | MIC ([1]; S. aureus USA300 WT, Table S2): 2 µg/mL (≈ 1.23 µM); MIC [2, 5]: 2 µg/mL (≈ 1.23 µM)
3 | CC[C@H]1OC(=O)[C@H](C)[C@@H](O[C@H]2C[C@@](C)(OC)[C@@H](O)[C@H](C)O2)[C@H](C)[C@@H](O[C@@H]2O[C@H](C)C[C@H](N(C)C)[C@H]2O)[C@](C)(O)C[C@@H](C)C(=O)[C@H](C)[C@@H](O)[C@]1(C)O [Erythromycin] | > 64 | did not reduce sensitivity | MIC ([2]; Staphylococcus aureus, USA300): > 64 µg/mL
4 | COc1c(N2CCNC(C)C2)c(F)cc2c(=O)c(C(=O)O)cn(C3CC3)c12 (stereo not drawn) [Gatifloxacin] | 0.5 (≈ 1.33 µM) | did not reduce sensitivity | 
5 | CNC(C)C1CCC(N)C(OC2C(N)CC(N)C(OC3OCC(C)(O)C(NC)C3O)C2O)O1 (stereo not drawn) [Gentamycin] | 1 (≈ 2.09 µM) | did not reduce sensitivity | 
6 | CC(=O)NC[C@H]1CN(c2ccc(N3CCOCC3)c(F)c2)C(=O)O1 [Linezolid] | 4 (≈ 11.9 µM) | did not reduce sensitivity | 
7 | CO[C@@H]1[C@@H](OC(N)=O)[C@@H](O)[C@H](Oc2ccc3c(O)c(NC(=O)c4ccc(O)c(CC=C(C)C)c4)c(=O)oc3c2C)OC1(C)C [Novobiocin] | 0.25 (≈ 0.408 µM) | did not reduce sensitivity | 
8 | Cc1onc(-c2ccccc2)c1C(=O)N[C@@H]1C(=O)N2[C@@H]1SC(C)(C)[C@@H]2C(=O)O [Oxacillin] | 64 (≈ 159 µM) | did not reduce sensitivity | 
9 | CO[C@H]1/C=C/O[C@@]2(C)Oc3c(C)c(O)c4c(O)c(c(/C=N/N5CCN(C)CC5)c(O)c4c3C2=O)NC(=O)/C(C)=C\C=C\[C@H](C)[C@H](O)[C@@H](C)[C@@H](O)[C@@H](C)[C@H](OC(C)=O)[C@@H]1C [Rifampicin] | 0.06 (≈ 0.0729 µM) | did not reduce sensitivity | 
10 | CN[C@H](CC(C)C)C(=O)N[C@H]1C(=O)N[C@@H](CC(N)=O)C(=O)N[C@H]2C(=O)N[C@H]3C(=O)N[C@H](C(=O)N[C@H](C(=O)O)c4cc(O)cc(O)c4-c4cc3ccc4O)[C@H](O)c3ccc(c(Cl)c3)Oc3cc2cc(c3O[C@@H]2O[C@H](CO)[C@@H](O)[C@H](O)[C@H]2O[C@H]2C[C@](C)(N)[C@H](O)[C@H](C)O2)Oc2ccc(cc2Cl)[C@H]1O [Vancomycin] |  | did not reduce sensitivity | MIC ([1]; S. aureus USA300 WT, Table S2): 2 µg/mL (≈ 1.38 µM); MIC [2, 5]: 1 µg/mL (≈ 0.69 µM)
11 | nisin |  |  | MIC [3]: 200 µg/mL; MIC [4]: 200 µg/mL
12 | protamine |  |  | MIC [3]: 8 µg/mL; MIC [4]: 8 µg/mL
